The values below come from patent US20260174714A1, “NONHUMAN ANIMAL AND USE THEREOF” (THE JIKEI UNIVERSITY, priority 2022, published 2026).

One data set relates to regenerated nephrons. The following applies: mouse, in vivo, ip. The text has this: (§1) This method has a low accuracy in the cell injection site and a low survival rate of the host fetus, and thus, a simpler method is required to establish the method as an evaluation model. Therefore, the collected cells derived from the EGFP mouse embryonic E14 kidney were directly injected into a subcapsular region of the kidney of a neonatal mouse aged 0 to 1 day after birth (see FIG. 3) by utilizing a fact that nephron precursor cells remain until about 3 days after birth and the renal development continues in mice (see Hartman H A, Lai H L. Cessation of renal morphogenesis in mice. 2007; 310(2): 379-87).
(§2) Cisplatin was intraperitoneally administered to a mouse individual having a chimeric kidney 2 weeks after transplantation, which was created in Experimental Example 1, and the regenerated nephrons were recovered 48 hours later and evaluated by immunofluorescence staining.
In addition, single-cell RNA sequencing was performed on the recovered sample.

The subject of data set [1] is foreign proximal renal tubular cells. Conditions: in vivo, ip. The text has this:
In Experimental Example 1, instead of the collected cells derived from the EGFP mouse embryonic E14 kidney, GFP-expressing human nephron precursor cells were directly injected into a subcapsular region of the kidney of a neonatal mouse aged 0 to 1 day after birth. The foreign nephrons in the cell injection region 2 weeks after the transplantation were examined by immunostaining (see (A) of FIG. 9). As shown in (A) of FIG. 9, the formation of glomeruli and renal tubules derived from GFP-expressing human nephron precursor cells was confirmed. In addition, cisplatin was intraperitoneally administered to a mouse individual having a chimeric kidney 2 weeks after the transplantation of the GFP-expressing human nephron precursor cells, and the regenerated nephrons were recovered 48 hours later and evaluated by immunofluorescence staining.

For data set [2] the test system is unchanged. Conditions: mouse, in vivo, ip.
Text: as §1, §2

With `N.N.[Cl][Pt][Cl]` [cisplatin], in the data set with regenerated nephrons, the “expression of disorder-related genes other than Kim-1” value was “enhanced expression of disorder-related genes other than Kim-1 was also confirmed”. For the same molecule, the “expression of human Kim-1 in the foreign proximal renal tubular cells” value in data set [1] is reported as “expression of human Kim-1 was confirmed”. For the same molecule, in data set [2], the “expression of Kim-1 in the foreign proximal renal tubular cells” value is given as “dose-dependent expression of Kim-1 was confirmed”.
